Measurements from patent US11117868B2, “Edaravone salt” (Treeway TW001 B.V., priority 2017, dated 2021).
In brackets after ≈: the same amount, converted by molar mass. Several values for one entry are separate records, joined by “and”; a condition that tells them apart may be missing. Identical values can stand only once.

Columns and labels:
[1] = Hygroscopicity / conversion of polymorph through absorption of water; format: physicochemical
[2] = Storage stability at controlled temperature and relative humidity
[3] = Solubility in water after 7 hours equilibration; format: physicochemical
[4] = Intrinsic dissolution rate in water; format: physicochemical
Procedure: The intrinsic dissolution rate in water of the edaravone salt was 0.37 mg/min/cm^2, whereas the dissolution rate of the freebase was 0.22 mg/min/cm^2.

[5] = cited from earlier work

For `CC1=NN(c2ccccc2)C(=O)C1.CC1=NN(c2ccccc2)C(=O)C1.O.O.O=S(=O)(O)c1cccc2c(S(=O)(=O)O)cccc12` [Example 4, 3-methyl-1-phenyl-2-pyrazolin-5-one hemi-napadisylate monohydrate], which hygroscopicity [1] is on record?
The hygroscopicity was “non-hygroscopic”.

What does the source list for “3-methyl-1-phenyl-2-pyrazolin-5-one hemi-napadisylate monohydrate [Example 1]”?
stability (in words) [2]: very stable; degradation on storage ([2]; kept for 28 days at 40° C. and 75% RH): without showing significant degradation; hygroscopicity [1]: non-hygroscopic; solubility in water ([3]; monohydrate): 2800 µg/mL and 3200 µg/mL; intrinsic dissolution rate in water [4]: 0.37 mg/min/cm^2

What does the source list for `CC1=NN(c2ccccc2)C(=O)C1` [Edaravone, 3-Methyl-1-phenyl-2-pyrazolin-5-one]?
solubility at 7 h ([3]; thermodynamic from solid): 2000 to 3000 µg/mL (≈ 11.5 to 17.2 mM); dissolution in water (in words) [5]: dissolves very slowly; intrinsic dissolution rate in water [4]: 0.22 mg/min/cm^2

What does the source list for “anhydrous 3-methyl-1-phenyl-2-pyrazolin-5-one napadisylate [Example 6]”?
degradation on storage ([2]; kept for 2 days at 40° C. and 75% RH): without showing significant degradation; relative humidity at which it is converted into polymorph D through absorption of water ([1]; conversion into polymorph D): > 75 % RH

Which “relative humidity at which it is converted into polymorph B through absorption of water” value ([1]; conversion into polymorph B) does the source give for `CC1=NN(c2ccccc2)C(=O)C1.CC1=NN(c2ccccc2)C(=O)C1.O.O=S(=O)(O)c1cccc2c(S(=O)(=O)O)cccc12` [Example 3, 3-methyl-1-phenyl-2-pyrazolin-5-one hemi-napadisylate hemihydrate] here?
Its value is > 50 % RH.
